# According to publication PMC5638611, “Effects of glutamate and ivermectin on single glutamate-gated chloride channels of the parasitic nematode H. contortus” (PLoS Pathogens, 2017):
# What was measured:
# [1] = biological target: T1, glutamate-gated chloride channel receptor α (avr-14b) (GluClR), homomeric, G36'A mutant (Haemonchus contortus, UniProt O46124, G329A); experiment: outside-out patch single-channel recording; direct activation by […] IVM; assay type: cell-based
# T1 construct: gene gbr-2; homomeric avr-14b subunit expressed in HEK AD293 cells
# T1 sequence (O46124 31-438 G329A): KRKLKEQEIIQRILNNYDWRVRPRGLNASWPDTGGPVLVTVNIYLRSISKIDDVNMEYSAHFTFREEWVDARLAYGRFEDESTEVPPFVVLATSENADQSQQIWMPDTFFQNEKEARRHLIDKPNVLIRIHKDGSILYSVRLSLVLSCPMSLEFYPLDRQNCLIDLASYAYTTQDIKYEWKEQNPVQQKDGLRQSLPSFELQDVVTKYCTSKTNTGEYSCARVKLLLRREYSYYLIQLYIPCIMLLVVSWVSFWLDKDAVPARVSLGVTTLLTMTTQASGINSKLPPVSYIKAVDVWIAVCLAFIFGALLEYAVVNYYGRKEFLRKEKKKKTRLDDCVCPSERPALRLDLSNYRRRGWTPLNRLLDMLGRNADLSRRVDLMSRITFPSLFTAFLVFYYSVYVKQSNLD
# [2] = biological target: T2, glutamate-gated chloride channel receptor α (avr-14b) (GluClR), homomeric (Haemonchus contortus, UniProt O46124); experiment: outside-out patch single-channel recording; direct activation by […] IVM, and potentiation of […] glutamate; assay type: cell-based
# T2 construct: gene gbr-2; homomeric avr-14b subunit expressed in HEK AD293 cells
# T2 sequence (O46124 entry or part of it): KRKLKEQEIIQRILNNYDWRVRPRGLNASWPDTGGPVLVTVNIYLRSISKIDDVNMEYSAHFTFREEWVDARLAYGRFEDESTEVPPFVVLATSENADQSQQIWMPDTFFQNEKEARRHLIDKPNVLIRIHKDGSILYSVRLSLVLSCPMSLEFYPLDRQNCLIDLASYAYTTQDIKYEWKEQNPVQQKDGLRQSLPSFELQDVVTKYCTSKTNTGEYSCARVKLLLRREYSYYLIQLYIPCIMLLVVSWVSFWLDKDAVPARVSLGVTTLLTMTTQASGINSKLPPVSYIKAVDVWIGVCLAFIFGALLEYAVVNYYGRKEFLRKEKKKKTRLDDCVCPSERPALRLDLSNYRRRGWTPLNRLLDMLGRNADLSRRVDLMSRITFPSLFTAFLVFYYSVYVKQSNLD
compound,measurement,setting,value
CC[C@H](C)[C@H]1O[C@]2(CC[C@@H]1C)C[C@@H]1C[C@@H](C/C=C(\C)[C@@H](O[C@H]3C[C@H](OC)[C@@H](O[C@H]4C[C@H](OC)[C@@H](O)[C@H](C)O4)[C@H](C)O3)[C@@H](C)/C=C/C=C3\CO[C@@H]4[C@H](O)C(C)=C[C@@H](C(=O)O1)[C@]34O)O2 [Ivermectin],outside-out patch single-channel recording; direct activation by 5 nM IVM,[1],5 nM
same,"outside-out patch single-channel recording; direct activation by 5 nM IVM, and p",[2],5 nM
